Among the test systems are A549 NSCLC; ACHN renal; COLO 205 colon; DU-145 prostate; MCF7 breast; MDA-MB-231 breast; MDA-N; NCI-H23 lung; NCI/ADR-RES ovarian; SK-MEL-2 melanoma; SK-OV-3 ovarian; T-47D breast.
Assay in all cases: inhibition of tumour cell growth, NCI panel, 48 h

The source of these data is PubChem BioAssay (NCI).

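Five concentrations, 48 hours, 96-well plates. TGI is the concentration that stops growth completely.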 Where only a bound is given, the exact number is not on record here.

For `C=CC(C)(C)c1cc([C@@H]2COc3cc(O)ccc3C2=O)c(O)c(O)c1OC`, the TGI with A549 NSCLC was over 100 µM; with ACHN renal it was 31.4 µM; with COLO 205 colon, 63 µM; in the test with DU-145 prostate it was 46.2 µM; with MCF7 breast, 32.5 µM; with MDA-MB-231 breast it was 57.5 µM. Moreover, the TGI in the test on MDA-N came to 51 µM; in the test with NCI-H23 lung, 34 µM; with NCI/ADR-RES ovarian, 64.3 µM; in the test with SK-MEL-2 melanoma, 45.8 µM; in the test on SK-OV-3 ovarian, 61 µM; in the test on T-47D breast, 62.3 µM.
Take `CNC(=S)N/N=C(\C)c1nc2ncccc2[nH]1`: the TGI with A549 NSCLC, in the test with ACHN renal, with COLO 205 colon, in the test with DU-145 prostate, in the test with MCF7 breast and in the test with MDA-MB-231 breast was over 100 µM throughout. Also, the TGI in the test on MDA-N was over 100 µM; in the test on NCI/ADR-RES ovarian, 29.7 µM; in the test on SK-MEL-2 melanoma, over 100 µM; in the test with SK-OV-3 ovarian, over 100 µM; in the test on T-47D breast, over 100 µM.
On to `Cc1ccc(N=C2SC(c3ccc(C)cc3)(c3ccc(C)cc3)c3ccccc32)cc1`, for which the TGI in the test with A549 NSCLC, with ACHN renal, in the test on COLO 205 colon, in the test on DU-145 prostate, with MCF7 breast and in the test on MDA-MB-231 breast was over 100 µM each time. The TGI in the test on MDA-N, with NCI-H23 lung, in the test on NCI/ADR-RES ovarian, with SK-MEL-2 melanoma, in the test with SK-OV-3 ovarian and in the test with T-47D breast was over 100 µM each time.
In the case of `CC(NNC(=O)c1ccncc1)c1ccc(Cl)c(Cl)c1` (stereo unspecified), the TGI in the test with A549 NSCLC, in the test with ACHN renal, with COLO 205 colon, with DU-145 prostate, in the test on MCF7 breast and with MDA-MB-231 breast was over 100 µM in each case. Besides, the TGI with MDA-N, in the test on NCI-H23 lung, with NCI/ADR-RES ovarian, in the test with SK-MEL-2 melanoma, in the test on SK-OV-3 ovarian and with T-47D breast was over 100 µM in each case.
With `COc1cc(/C=C2\Cc3cc(OC)c(OC)cc3C2=O)cc(OC)c1`, the TGI in the test with A549 NSCLC, in the test on ACHN renal, in the test on COLO 205 colon, with DU-145 prostate, in the test with MCF7 breast and with MDA-MB-231 breast was over 100 µM each time. In addition, the TGI with MDA-N is 39.2 µM; in the test with NCI-H23 lung, over 56.9 µM; in the test with NCI/ADR-RES ovarian, over 100 µM; with SK-MEL-2 melanoma, over 100 µM; with SK-OV-3 ovarian it was over 84.9 µM; in the test on T-47D breast it was over 100 µM.
On to `COc1cc(C(c2cccc3ccccc23)N2C(=O)CCC2C(=O)NCc2ccccc2)cc(OC)c1OC` (stereo unspecified), for which the TGI in the test with A549 NSCLC, in the test on COLO 205 colon, with DU-145 prostate, in the test on MCF7 breast, in the test on MDA-MB-231 breast and with MDA-N was over 100 µM in each case. The TGI in the test on NCI-H23 lung, with NCI/ADR-RES ovarian, in the test with SK-MEL-2 melanoma, in the test on SK-OV-3 ovarian and in the test on T-47D breast was over 100 µM throughout.
For `N#Cc1c(Nc2nc3ccccc3s2)c2ccccc2n2c1nc1ccccc12`, the TGI in the test with A549 NSCLC, in the test on ACHN renal, in the test with COLO 205 colon, in the test on DU-145 prostate, with MCF7 breast and in the test with MDA-MB-231 breast was over 100 µM throughout. Also, the TGI in the test with MDA-N, in the test with NCI-H23 lung, in the test on NCI/ADR-RES ovarian, in the test with SK-MEL-2 melanoma and in the test on T-47D breast was over 100 µM in each case.
For `O=c1[nH]c2cc3cccnc3c(Cl)c2nc1CBr`, the TGI in the test on A549 NSCLC stood at 38.8 µM; in the test on ACHN renal, 20.3 µM; with COLO 205 colon, 26.8 µM; with DU-145 prostate, 30.4 µM; in the test with MCF7 breast it was 29.2 µM; in the test with MDA-MB-231 breast, 34.4 µM. For the same molecule, the TGI was found to be 34.9 µM in the test on MDA-N; 32.2 µM in the test on NCI-H23 lung; 53.3 µM in the test with NCI/ADR-RES ovarian; 65.5 µM in the test on SK-OV-3 ovarian; 28.3 µM with T-47D breast.
With `COP(=O)(OC)C(NC=O)P(=O)(OC)OC`, the TGI in the test with A549 NSCLC, in the test on ACHN renal, with COLO 205 colon, with DU-145 prostate, in the test on MCF7 breast and in the test on MDA-MB-231 breast was over 100 µM each time. Further, the TGI in the test with MDA-N, in the test on NCI-H23 lung, with NCI/ADR-RES ovarian, in the test with SK-OV-3 ovarian and in the test with T-47D breast was over 100 µM each time.
Consider `COc1cc(/C=N\NC(=O)C[N+](C)(C)C)cc(OC)c1OC`, for which the TGI in the test with A549 NSCLC, in the test with ACHN renal, in the test on COLO 205 colon, with DU-145 prostate, in the test with MCF7 breast and with MDA-MB-231 breast was over 10 µM each time. The TGI in the test with MDA-N, with NCI-H23 lung, with NCI/ADR-RES ovarian, in the test with SK-OV-3 ovarian and in the test on T-47D breast was over 10 µM in each case.
Regarding `Cn1c2c(c3ccccc31)CCN1C(=O)C3SC21C1C(=O)N(c2ccccc2)C(=O)C31` (stereo unspecified), the TGI with A549 NSCLC, in the test with ACHN renal, in the test with COLO 205 colon, in the test with DU-145 prostate, with MCF7 breast and in the test on MDA-MB-231 breast was over 100 µM in each case. In addition, the TGI with MDA-N, in the test with NCI-H23 lung, with NCI/ADR-RES ovarian, with SK-OV-3 ovarian and in the test with T-47D breast was over 100 µM throughout.
As for `[N-]=[N+]=NC[C@H]1OCO[C@H](CN=[N+]=[N-])[C@H]2OCCOCCOc3ccccc3OCCOCCO[C@@H]21`, the TGI in the test with A549 NSCLC, in the test on COLO 205 colon, in the test on DU-145 prostate, in the test on MCF7 breast, in the test with MDA-MB-231 breast and with MDA-N was over 100 µM in each case. The TGI with NCI-H23 lung, in the test on NCI/ADR-RES ovarian, in the test with SK-MEL-2 melanoma, in the test with SK-OV-3 ovarian and in the test with T-47D breast was over 100 µM in each case.
